In BindingDB's records for doi:10.7270/Q2QJ7FTF (Burnham Center For Chemical Genomics, 2011):

Target: T1, C-C chemokine receptor type 6 (Homo sapiens, UniProt P51684)
T1 sequence (P51684 whole entry): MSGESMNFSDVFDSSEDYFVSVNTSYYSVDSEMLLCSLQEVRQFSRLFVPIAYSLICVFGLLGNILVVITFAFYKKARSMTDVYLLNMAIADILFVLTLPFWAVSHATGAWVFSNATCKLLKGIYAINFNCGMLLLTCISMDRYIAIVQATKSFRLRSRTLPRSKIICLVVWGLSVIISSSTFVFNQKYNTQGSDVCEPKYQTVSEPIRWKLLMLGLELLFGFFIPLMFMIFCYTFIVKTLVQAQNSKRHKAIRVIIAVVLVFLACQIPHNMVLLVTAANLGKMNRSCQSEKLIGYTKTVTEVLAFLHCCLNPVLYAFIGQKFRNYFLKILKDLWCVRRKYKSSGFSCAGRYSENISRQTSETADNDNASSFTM
Assay: analog antagonism of CCR6 beta-arrestin signaling – cell-based, luminescent beta-arrestin readout, SAR follow-up (AID 540334)

Compound | IC50 [µM]
OCC12C=CC(O1)c1c2c(O)n(-c2ccccc2-c2ccccc2)c1O (configuration not stated) [7-(hydroxymethyl)-2-(2-phenylphenyl)-4,7a-dihydro-3aH-octahydro-1H-4,7-epoxyisoindole-1,3-dione] | > 66.6
CN1C(=O)C(C2CC(c3ccc(Cl)cc3)N=N2)C(=O)N(C)C1=O (configuration not stated) [SMR000439471] | 5.84
